Patent publication US11191742B2, “Methods of treating neurodegenerative disorders in a particular population” (ALZHEON, INC., priority 2015, dated 2021)

Columns and labels:
Format in all cases: in vivo, human
[1] = Safety in Phase 3 tramiprosate studies
Description: In some embodiments, the subject is determined to have moderate AD when the subject has a baseline MMSE score in the range of 16-19. In some embodiments, the subject is determined to have mild AD when the subject has a baseline MMSE score in the range of 20-26. […] Safety data from Phase 3 tramiprosate studies support bridging to the ALZ-801 safety database, based on bioequivalence. The disclosures in provisional application Ser. No. 62/216,404, filed Sep. 10, 2015, 62/290,287, filed Feb. 2, 2016, and 62/365,809, filed Jul. 22, 2016 are incorporated herein for all purposes and particularly regarding dosages and formulations.

[2] = test system: APOE4 heterozygous patients with Alzheimer's disease; assay: Phase 3 trials of tramiprosate, CDR-SB score, heterozygous APOE4+ patients; details: Heterozygous APOE4+ patients ≤85 years
Description: (§1) The delta value in all of these tables is calculated by measuring the increase in score over baseline for each patient in a treatment group and obtaining the mean increase for such group and then subtracting that value from the mean increase in score over baseline for all patients in the placebo group. Thus, a positive delta value in these tables represents an improvement over the placebo group. Phase 3 human clinical trials of tramiprosate to treat Alzheimer's disease at doses of 100 mg BID and 150 mg BID for up to 78 weeks were run in both North America and Europe (1691 total patients enrolled). Placebos in both trials were treatment with donepezil either alone or in combination with memantine. ADAS-Cog scores and CDR-SB scores were obtained every 13 weeks for patients that remained in the trial. The patients were genotyped for APOE4 and the severity of their disease was measured using MMSE prior to the beginning of treatment. The data from both trials were merged for certain statistical analyses. […] We then performed additional subgroup analysis, subgrouping by APOE4 genotype/allele status (APOE4 heterozygous or APOE4 homozygous) and by disease severity (mild vs moderate) to determine if the number of c alleles and/or the severity of disease predicted a better outcome of tramiprosate therapy. […] In Table 4, *control treatment is donepezil either alone or in combination with memantine. Positive delta values quantitate the amount by which average increase in CDR-SB Score points above baseline for the control group exceeded the average increase in CDR-SB Score points above baseline for the treatment group.

[3] = test system: APOE4+ patients with Alzheimer's disease; assay: Phase 3 trials of tramiprosate, CDR-SB score, all APOE4+ patients; details: for CDR-SB Score Change over Standard of Care (Δ improvement vs control): All APOE4+ patients ≤85 years
Description: as §1, with “2,” for “4,”

[4] = Mild (MMSE 20-26), 100 mg BID, 52 weeks
[5] = Mild (MMSE 20-26), 100 mg BID, 65 weeks
[6] = Mild (MMSE 20-26), 100 mg BID, 78 weeks
[7] = Mild (MMSE 20-26), 150 mg BID, 52 weeks
[8] = Mild (MMSE 20-26), 150 mg BID, 65 weeks
[9] = Mild (MMSE 20-26), 150 mg BID, 78 weeks
[10] = Mild-to-Moderate (MMSE 16-26), 100 mg BID, 52 weeks
[11] = Mild-to-Moderate (MMSE 16-26), 100 mg BID, 65 weeks
[12] = Mild-to-Moderate (MMSE 16-26), 100 mg BID, 78 weeks
[13] = Mild-to-Moderate (MMSE 16-26), 150 mg BID, 52 weeks
[14] = Mild-to-Moderate (MMSE 16-26), 150 mg BID, 65 weeks
[15] = Mild-to-Moderate (MMSE 16-26), 150 mg BID, 78 weeks
[16] = Moderate (MMSE 16-19), 100 mg BID, 52 weeks
[17] = Moderate (MMSE 16-19), 100 mg BID, 65 weeks
[18] = Moderate (MMSE 16-19), 100 mg BID, 78 weeks
[19] = Moderate (MMSE 16-19), 150 mg BID, 52 weeks
[20] = Moderate (MMSE 16-19), 150 mg BID, 65 weeks
[21] = Moderate (MMSE 16-19), 150 mg BID, 78 weeks

NCCCS(=O)(=O)O [Tramiprosate, 3-amino-1-propanesulfonic acid]
Most common adverse event [1]: nausea
Safety profile [1]: favorable safety profile
CDR-SB Score Change over Standard of Care (Δ improvement vs control) [2, 4]: 0.2 points
CDR-SB Score Change over Standard of Care (Δ improvement vs control) [2, 5]: 0.3 points
CDR-SB Score Change over Standard of Care (Δ improvement vs control) [2, 6]: 0.3 points
CDR-SB Score Change over Standard of Care (Δ improvement vs control) [2, 7]: 0.1 points
CDR-SB Score Change over Standard of Care (Δ improvement vs control) [2, 8]: −0.1 points
CDR-SB Score Change over Standard of Care (Δ improvement vs control) [2, 9]: 0 points
CDR-SB Score Change over Standard of Care (Δ improvement vs control) [2, 10]: 0.5 points
CDR-SB Score Change over Standard of Care (Δ improvement vs control) [2, 11]: 0.5 points
CDR-SB Score Change over Standard of Care (Δ improvement vs control) [2, 12]: 0.6 points
CDR-SB Score Change over Standard of Care (Δ improvement vs control) [2, 13]: 0.4 points
CDR-SB Score Change over Standard of Care (Δ improvement vs control) [2, 14]: 0.3 points
CDR-SB Score Change over Standard of Care (Δ improvement vs control) [2, 15]: 0.50 points
CDR-SB Score Change over Standard of Care (Δ improvement vs control) [2, 16]: 1.00 points
CDR-SB Score Change over Standard of Care (Δ improvement vs control) [2, 17]: 1.00 points
CDR-SB Score Change over Standard of Care (Δ improvement vs control) [2, 18]: 1.00 points
CDR-SB Score Change over Standard of Care (Δ improvement vs control) [2, 19]: 1.00 points
CDR-SB Score Change over Standard of Care (Δ improvement vs control) [2, 20]: 1.1 points
CDR-SB Score Change over Standard of Care (Δ improvement vs control) [2, 21]: 1.5 points
Effect on CDR-SB compared with the placebo ([3]; APOE4+ subgroup, both 100 mg and 150 mg treatment groups): statistically significant effect
CDR-SB Score Change over Standard of Care (Δ improvement vs control) [3, 4]: 0.14 points
CDR-SB Score Change over Standard of Care (Δ improvement vs control) [3, 5]: 0.34 points
CDR-SB Score Change over Standard of Care (Δ improvement vs control) [3, 6]: 0.35 points
CDR-SB Score Change over Standard of Care (Δ improvement vs control) [3, 7]: 0.16 points
CDR-SB Score Change over Standard of Care (Δ improvement vs control) [3, 8]: 0.2 points
CDR-SB Score Change over Standard of Care (Δ improvement vs control) [3, 9]: 0.18 points
CDR-SB Score Change over Standard of Care (Δ improvement vs control) [3, 10]: 0.26 points
CDR-SB Score Change over Standard of Care (Δ improvement vs control) [3, 11]: 0.5 points
CDR-SB Score Change over Standard of Care (Δ improvement vs control) [3, 12]: 0.55 points
CDR-SB Score Change over Standard of Care (Δ improvement vs control) [3, 13]: 0.44 points
CDR-SB Score Change over Standard of Care (Δ improvement vs control) [3, 14]: 0.5 points
CDR-SB Score Change over Standard of Care (Δ improvement vs control) [3, 15]: 0.6 points
CDR-SB Score Change over Standard of Care (Δ improvement vs control) [3, 16]: 0.56 points
CDR-SB Score Change over Standard of Care (Δ improvement vs control) [3, 17]: 0.83 points
CDR-SB Score Change over Standard of Care (Δ improvement vs control) [3, 18]: 0.98 points
CDR-SB Score Change over Standard of Care (Δ improvement vs control) [3, 19]: 1.00 points
CDR-SB Score Change over Standard of Care (Δ improvement vs control) [3, 20]: 1.12 points
CDR-SB Score Change over Standard of Care (Δ improvement vs control) [3, 21]: 1.53 points
